The values that follow are results of earlier work, collected in the CATMoS acute toxicity set (Mansouri et al. 2021).

Values joined by “and” are separate entries in the source; they are usually repeats but may differ in a detail not shown here. Identical values can stand only once.

The nature of this series: rat acute oral toxicity. As to conditions: in vivo.
What is called LD50 is the dose expected to kill half of the subjects tested. In the case of `S=C(NNc1ccccc1)NNc1ccccc1`, the LD50 was 1500 mg/kg.

Regarding `CNC(=C[N+](=O)[O-])NCCSCc1csc(CN(C)C)n1`, the LD50 is 1650 mg/kg.

Take `Cc1ccccc1OCC(O)CN1CC=CCC1` (stereo not given): the LD50 was 340 mg/kg.

In the case of `CN(C)N=Nc1ccccc1`, the 50% lethal dose (LD50) is 310 mg/kg.

As for `COC(=O)C1CCc2cc(C3CCCCC3)ccc21` (stereo not given), the LD50 was 410 mg/kg and 254 mg/kg.

For `NC(=O)C(O)(c1ccccc1)c1ccccc1`, the LD50 was 1550 mg/kg.

For `OCC(Br)CBr` (stereo not given), the LD50 was 681 mg/kg.

Take `Nc1cccc2c3c([nH]c12)CCCC3`: the median lethal dose (LD50) is 1380 mg/kg.

In the case of `N#CSCCSC#N`, the LD50 was 50 mg/kg.

Consider `CC1(C)CC(=O)CC(C)(C)N1[O]`, for which the LD50 is 1460 mg/kg.

Consider `COc1cc2[nH]c3c(c2cc1OC)CCN1CC2C(C)OC=C(C(=O)OCCN(C)C)C2CC31` (stereo not given), for which the LD50 was 2350 mg/kg.

With `Cc1cc(O)c(C)c(C)c1O`, the LD50 was 3200 mg/kg.

With `C=CC(=O)NC(C)C`, the LD50 was 375 mg/kg.

Regarding `Cc1ncc(CO)c(C=O)c1O`, the median lethal dose (LD50) was 2150 mg/kg.

On to `O=S(=O)(Nc1ncc(OCCO)cn1)c1ccccc1`, for which the LD50 was 8000 mg/kg.

As to `CC1CC(C)(O)CC(C(O)CC2CC(=O)NC(=O)C2)C1=O` (stereo not given), the median lethal dose (LD50) is 3 mg/kg.

As to `O=C(O)CSc1cccc2cccc(CCl)c12`, the 50% lethal dose (LD50) was 2500 mg/kg.

For the compound `CC1(C)C(C(=O)OCc2coc(Cc3ccccc3)c2)C1(C)C`, the 50% lethal dose (LD50) was 141 mg/kg.

In the case of `CC(C)=CC1C(C(=O)OCc2cc3c(cc2Cl)OCO3)C1(C)C` (stereo not given), the LD50 was 15000 mg/kg.

For `CCCCCCC(C)=CC#N`, the median lethal dose (LD50) is 1720 mg/kg.

For the compound `COC(=O)Nc1nc2ccccc2[nH]1`, the median lethal dose (LD50) was 6400 mg/kg and 12500 mg/kg and 7500 mg/kg.

As to `Cc1ncc(COP(=O)(O)O)c(C=O)c1O`, the LD50 is 5900 mg/kg.

As to `COP(=O)(OC1CCCCC1)SC` (stereo not given), the 50% lethal dose (LD50) is 240 mg/kg.

Take `CN1CC(CCN2CC=C(c3ccccc3)CC2)OC1=O` (stereo not given): the median lethal dose (LD50) is 340 mg/kg.

As for `Cc1ccccc1N(CCO)CCO`, the LD50 was 2200 mg/kg.

For `COCCO[Si](CCCl)(OCCOC)OCCOC`, the LD50 is 878 mg/kg.

With `CCOC(=O)N(C)N=O`, the median lethal dose (LD50) was 180 mg/kg.

For `O[C@@H]1CO[C@H]2[C@@H]1OC[C@@H]2O`, the 50% lethal dose (LD50) is 24200 mg/kg.

Turning to `CC(O)(c1ccc(Cl)cc1)c1ccc(Cl)cc1`, the 50% lethal dose (LD50) was 500 mg/kg.

With `CC(C)=CCCC(C)CC#N` (stereo not given), the LD50 was 5300 mg/kg.

For `CC(O)C(Cl)(Cl)Cl` (stereo not given), the LD50 was 1000 mg/kg.

As for `C=CC(O)CCCCC` (stereo not given), the median lethal dose (LD50) was 340 mg/kg.

In the case of `O=C(NCCO)c1ccccc1O`, the 50% lethal dose (LD50) is 4300 mg/kg.

`CCOP(=O)(O)Sc1ccc(C)cc1`: the LD50 was 50 mg/kg.

As for `N#Cc1cc(Cl)c2nc(C(F)(F)F)[nH]c2c1`, the LD50 was 2.4 mg/kg.

On to `CCCCOC(=O)c1ccccc1C(=O)OCCOCCOC(=O)c1ccccc1C(=O)OCCCC`, for which the 50% lethal dose (LD50) was 11000 mg/kg.

As to `ClC=Cc1ccccc1`, the LD50 is 5200 mg/kg.

For the compound `CC(C=O)=Cc1ccco1`, the LD50 is 1400 mg/kg.

`CC[C@H]1CCCC(O[C@H]2CC[C@H](N(C)C)[C@@H](C)O2)[C@@H](C)C(=O)C2=C[C@@H]3[C@@H](C=C[C@@H]4C[C@@H](O[C@@H]5O[C@@H](C)[C@H](OC)[C@@H](OC)[C@H]5OC)C[C@@H]34)[C@@H]2CC(=O)O1` (stereo not given in full): the 50% lethal dose (LD50) was 3740 mg/kg.

For the compound `CCCCC(CC)COC(=O)c1ccccc1C(=O)OCC(CC)CCCC` (stereo not given), the median lethal dose (LD50) was 30000 mg/kg.

With `Clc1ccc(CSC(Cn2cncn2)=Nc2ccc(Cl)cc2Cl)cc1`, the 50% lethal dose (LD50) was 2800 mg/kg.

Regarding `CO[C@@H]1[C@@H](OC(N)=O)[C@@H](O)[C@H](Oc2ccc3c(O)c(NC(=O)c4ccc(O)c(CC=C(C)C)c4)c(=O)oc3c2C)OC1(C)C`, the LD50 was 3500 mg/kg.

For `CC(C)=NNC(=O)CSc1cc(Oc2ccc(C)cc2)ncn1`, the 50% lethal dose (LD50) was 900 mg/kg.

`Cc1cc(N)ccc1S(=O)(=O)NCCO`: the LD50 was 8900 mg/kg.

`CCCCCCOC(=O)Oc1ccccc1C(=O)O`: the median lethal dose (LD50) was 3450 mg/kg.

For the compound `Cc1ccc(Cl)cc1N`, the LD50 was 464 mg/kg.

As for `O=C1CCCCCC=CCCCCCCCCO1`, the LD50 was 339 mg/kg.

`CCc1ccc([N+]([O-])=Cc2ccccc2)cc1`: the LD50 is 1340 mg/kg.

On to `Nc1ccc(N=Nc2ccccc2)c(N)n1`, for which the 50% lethal dose (LD50) was 472 mg/kg and 403 mg/kg.

Regarding `N#Cc1ccccc1C#N`, the LD50 was 30 mg/kg.

`COc1cc2c(cc1OC)C1Cc3ccc(OC)c(OC)c3CN1CC2` (stereo not given): the LD50 was 580 mg/kg.

For the compound `O=C(C=Cc1ccccn1)OCCN1CCN(c2ccc(Cl)cc2)CC1`, the LD50 was 478 mg/kg.

For the compound `CN1CCN(c2cc3c(nn2)Oc2ccccc2N3C)CC1`, the LD50 was 1000 mg/kg.

Take `COC1=C2C[C@@H](C)C[C@H](OC)[C@H](O)[C@@H](C)C=C(C)[C@H](OC(N)=O)[C@@H](OC)C=CC=C(C)C(=O)NC(=CC1=O)C2=O`: the LD50 is 2500 mg/kg.

Turning to `CN(C)c1ccccc1CS(=O)c1nc2ccccc2[nH]1` (stereo not given), the median lethal dose (LD50) was 1300 mg/kg.

In the case of `C=CCCC(=O)Cl`, the median lethal dose (LD50) is 470 mg/kg.

Turning to `Cc1cc(-n2c(C)nc3ccccc3c2=O)n(-c2ccccc2)n1`, the LD50 was 1800 mg/kg.

For the compound `O=c1[nH]c(=O)n([C@H]2C[C@H](O)[C@@H](CO)O2)cc1Br`, the LD50 is 8400 mg/kg.

Take `CCCC[P+](CCCC)(CCCC)Cc1ccc(Cl)s1`: the LD50 was 455 mg/kg.

With `O=C1C(CCS(=O)c2ccccc2)C(=O)N(c2ccccc2)N1c1ccccc1` (stereo not given), the LD50 was 358 mg/kg.
